Test results from ChEMBL document CHEMBL1153782, “3D QSAR study of the toxicity of trichothecene mycotoxins” (Eur J Med Chem, 2009).

Key:
Saccharomyces cerevisiae [1] = assay: Cytotoxicity against yeast cells assessed as logarithm of ratio of toxicity of test compound to Tetraol; format: functional, organism-based
Saccharomyces cerevisiae [2] = assay: Cytotoxicity against yeast cells relative to Tetraol; format: functional, organism-based

SMILES	Activity (Saccharomyces cerevisiae [1])	Ratio (Saccharomyces cerevisiae [2])
CC(=O)OC[C@]12CCC(C)=C[C@H]1O[C@@H]1[C@H](OC(C)=O)[C@@H](OC(C)=O)[C@@]2(C)[C@]12CO2	2.2	2.2
CC(=O)OC[C@]12CCC(C)=C[C@H]1O[C@@H]1[C@H](O)[C@@H](OC(C)=O)[C@@]2(C)[C@]12CO2	343	343
